{"source": "patent US8034329B2", "about": "“Repair and regeneration of renal tissue using human umbilical cord tissue-derived cells” (Advanced Technologies And Regenerative Medicine, LLC, priority 2007, dated 2011)", "system": "HLA-DR, DP, DQ expression of hUTC", "experiment": "Inhibition of IFN-gamma-induced expression of HLA-DR, DP, DQ on hUTC, flow cytometry", "format": "cell-based, human", "protocol": "Culture-expanded human umbilical cord tissue-derived cells (022803 P4) were seeded into 6-well tissue culture plates and cultured in Dulbecco's Modified Eagles Media (DMEM)-low glucose, 15% fetal bovine serum (FBS), penicillin/streptomycin (P/S), Betamercaptoethanol (BME) to approximately 70% confluence. The cells were then treated with media containing 10 μM of respective HMG-CoA reductase inhibitor (Simvastatic acid (Alexis Biochemicals, Lausen, Switzerland) formulated as 10 mM stock reagents in DMSO) or DMSO vehicle—0.1% (Sigma, St. Louis, Mo.) and incubated overnight. The media was removed by aspiration and replaced with media containing 500 U/ml rhIFN-gamma (BD Pharmingen, Franklin Lakes, N.J.) and […] of respective HMG-CoA reductase inhibitor and incubated for 3 days. On day three, cells were harvested with trypsin.\nHarvested cells were washed once with PBS and re-suspended in 100 μl of 3% FBS in PBS with 20 μl FITC-labeled HLA-DR,DP,DQ (BD Biosciences, Franklin Lakes, N.J.) or FITC-labeled IgG antibody (BD Biosciences, Franklin Lakes, N.J.) and incubated for one hour. Cells were washed once in PBS and resuspended in 500 μl PBS and analyzed on a FACSCalibur flow cytometer (BS Biosciences, Franklin Lakes, N.J.).", "data": [{"smiles": "CCC(C)(C)C(=O)O[C@H]1C[C@@H](C)C=C2C=C[C@H](C)[C@H](CC[C@@H]3C[C@@H](O)CC(=O)O3)[C@H]21", "note": "[Simvastatin]", "values": [{"measurement": "HLA-DR, DP, DQ expression, FITC fluorescence intensity, IFN-gamma-treated, mean", "setting": "10 μM inhibitor overnight, then 500 U/ml rhIFN-gamma plus inhibitor 3 days", "result": 5.57}, {"measurement": "HLA-DR, DP, DQ expression, FITC fluorescence intensity, No cytokine treatment, Mean", "setting": "10 μM inhibitor, no IFN-gamma", "result": 5.66}, {"measurement": "FITC fluorescence intensity, IgG control, mean", "setting": "10 μM inhibitor, FITC-labeled IgG antibody", "result": 4.4}]}]}
